Source: patent US9029574B2, “Bicyclic compound and use thereof for medical purposes” (Ono Pharmaceutical Co., Ltd., priority 2011, dated 2015)

Tests used:
Type in all cases: cell-based
mouse EP1 receptor = target: T1, mouse EP1 receptor (Mus musculus, UniProt P35375); experiment: Measurement of EP1 agonist activity (intracellular calcium concentration) in EP1-CHO cells; conditions: for EC50: EP1-CHO cells, intracellular calcium concentration, read-out: Agonist activity on various prostanoid receptors: EC50 value (nmol/L) EP1
T1 construct: expressed in transfected cells; host or cells: CHO cells (EP1-CHO)
T1 sequence (P35375 1-405): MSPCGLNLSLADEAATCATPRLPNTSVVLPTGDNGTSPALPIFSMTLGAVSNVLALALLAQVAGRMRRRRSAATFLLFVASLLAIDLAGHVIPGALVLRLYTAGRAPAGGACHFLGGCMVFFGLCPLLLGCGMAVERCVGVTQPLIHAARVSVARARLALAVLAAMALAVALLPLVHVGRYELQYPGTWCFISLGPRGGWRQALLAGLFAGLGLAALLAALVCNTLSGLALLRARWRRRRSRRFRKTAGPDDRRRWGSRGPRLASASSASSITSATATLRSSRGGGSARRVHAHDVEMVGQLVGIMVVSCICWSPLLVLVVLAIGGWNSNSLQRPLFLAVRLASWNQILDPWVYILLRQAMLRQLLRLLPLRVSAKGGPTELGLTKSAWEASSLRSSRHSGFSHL
Excerpt: (§1) (1-1) Measurement of Agonist Activity on Various Mouse Prostanoid Receptors
(§2) With using CHO cells (FP-CHO, EP1-CHO and IP-CHO, respectively) in which various mouse prostanoid receptors were forcibly expressed, respectively, agonist activity of test compounds on various prostanoid receptors was studied employing an intracellular calcium concentration regarding FP and EP1, and an intracellular cyclic AMP (hereinafter, abbreviated as cAMP) production amount regarding IP, as an index.
(§3) The test compound was dissolved with dimethyl sulfoxide (DMSO) to prepare a 10 mmol/L solution. Regarding the prepared 10 mmol/L solution, upon use, the 10 mmol/L solution was thawed; step wisely-diluted using DMSO; and diluted with a buffer solution for measurement or a buffer solution for measurement 2, which was subjected to an experiment.
(§4) Cells forcibly expressing various mouse prostanoid receptors were standing-cultured at 37° C. in the presence of 5% CO2 with using an α-MEM medium (Sigma) (for culturing FP-CHO and EP1-CHO) containing inactivated (56° C., 30 minutes) 9.8 vol % dialysed-FBS (Invitrogen) and penicillin-streptomycin-glutamine (GIBCO-BRL), or nucleic acid-containing α-MEM (Sigma) (for culturing IP-CHO) containing inactivated (56° C., 30 minutes) 9.8 vol % dialysed-FBS (Invitrogen) and penicillin-streptomycin glutamine (Invitrogen). Subculturing was performed by the following method.
(§5) After collecting cells into a centrifuging tube, cells were centrifuged at 120 g for 3 minutes at room temperature and the supernatant was removed. Cells were suspended in a suitable amount of a medium, and seeded in a culturing flask.
(§6) (1-2) Measurement of FP and EP1 Agonist Activity (Measurement of Intracellular Calcium Concentration)
(§7) Regarding FP-CHO and EP1-CHO, by the same method as that of subculturing, cells were peeled and suspended. Before two days from measurement, cells were seeded at a density of 1.0×10^4 cells/well into a 96-well UV plate, and standing-cultured at 37° C. in the presence of 5% CO2. […] To each well, 100 μL of a medium containing 5 μmol/L fura 2-AM (DOJINDO), 2.5 mmol/L Probenecid (Sigma), 20 μmol/L indometacin (Sigma) and 10 mmol/L HEPES (Invitrogen) was added, and cells were incubated for about 60 minutes in a CO2 incubator. After completion of the incubation, the medium was removed, and cells were washed with a buffer solution for measurement (Hank's balanced salt solution (Nissui Pharmaceutical Co., Ltd., 9.8 g of the present product was dissolved in 1 L distilled water) containing 0.1 or 1 w/v % bovine serum albumin, 2 μmol/L indometacin, 2.5 mmol/L Probenecid and 10 mmol/L HEPES-NaOH (pH 7.4)) twice. To each well, 120 μL of a buffer solution for measurement was added; and cells were incubated in a CO2 incubator for 30 minutes; and then cells were subjected to an experiment.
(§8) The 96-well UV plate was set in a fluorescent spectral photometer (FDSS-3000, Hamamatsu Photonics K.K.), and an intracellular calcium concentration was measured. To perform a reaction, 30 μL of a buffered solution for measurement containing an agonist at a variety of concentrations was added. Measurement of an intracellular calcium concentration was performed by irradiating cells with excited light of 340 nm and 380 nm alternately, with measuring a fluorescent intensity at 500 nm, and obtaining a fluorescent intensity ratio of 2-wavelength excitation.
(§9) With using measured values obtained from the above method, an EC50 value as an index of agonist activity of the compound of the present invention on mouse FP, mouse EP1 and mouse IP receptors was calculated.

mouse IP receptor = target: T2, mouse IP receptor (Mus musculus, UniProt P43252); experiment: Measurement of IP agonist activity (cAMP concentration) in IP-CHO cells; conditions: for EC50: IP-CHO cells, intracellular cAMP production amount, read-out: Agonist activity on various prostanoid receptors: EC50 value (nmol/L) IP
T2 construct: expressed in transfected cells; host or cells: CHO cells (IP-CHO)
Excerpt: as §1, §2, §3, §4, §5
(1-3) Measurement of IP Agonist Activity (Measurement of cAMP Concentration)
Cells were suspended in a suitable amount of a buffer solution for measurement 1 (MEM medium (Invitrogen) containing 0.1 w/v % bovine serum albumin (Sigma) and 2 μmol/L diclofenac (Sigma)), and centrifuged at room temperature for 3 minutes at 500 g, and the supernatant was removed. Cells were suspended in a buffer solution for measurement 2 (MEM medium (Invitrogen) containing 0.1 w/v % bovine serum albumin (Sigma), 2 μmol/L diclofenac (Sigma) and 1 mmol/L 3-isobutyl-1-methylxanthine), and each 25 μL of the suspension was dispensed at a density of 5.0×10^4 cells/well into a 96-well ½ area plate. A buffer solution for measurement 2 (25 μL) containing an agonist at a variety of concentrations was added to perform a reaction at room temperature for 30 minutes. Measurement of a cAMP concentration was performed with using the cAMP HTRF HiRange kit (CIS bio International). According to the two step protocol of the kit manual, each 25 μL of cAMP-D2 and cryptase diluted with a lysis buffer were added, followed by incubation at room temperature for 1 hour. After incubation for 1 hour, time resolved fluorescence at 620 nm and 660 nm in case of beging excited at 340 nm was measured using Analyst GT (Molecular Device), and a ratio (TRF ratio) was obtained, by which a cAMP concentration was calculated from a calibration line.
as §9

mouse FP receptor = target: T3, mouse FP receptor (Mus musculus, UniProt P43117); experiment: Measurement of FP agonist activity (intracellular calcium concentration) in FP-CHO cells; conditions: for EC50: FP-CHO cells, intracellular calcium concentration, read-out: Agonist activity on various prostanoid receptors: EC50 value (nmol/L) FP
T3 construct: expressed in transfected cells; host or cells: CHO cells (FP-CHO)
Excerpt: as §1, §2, §3, §4, §5, §6, §7, §8, §9

T2 sequence (P43252 whole entry): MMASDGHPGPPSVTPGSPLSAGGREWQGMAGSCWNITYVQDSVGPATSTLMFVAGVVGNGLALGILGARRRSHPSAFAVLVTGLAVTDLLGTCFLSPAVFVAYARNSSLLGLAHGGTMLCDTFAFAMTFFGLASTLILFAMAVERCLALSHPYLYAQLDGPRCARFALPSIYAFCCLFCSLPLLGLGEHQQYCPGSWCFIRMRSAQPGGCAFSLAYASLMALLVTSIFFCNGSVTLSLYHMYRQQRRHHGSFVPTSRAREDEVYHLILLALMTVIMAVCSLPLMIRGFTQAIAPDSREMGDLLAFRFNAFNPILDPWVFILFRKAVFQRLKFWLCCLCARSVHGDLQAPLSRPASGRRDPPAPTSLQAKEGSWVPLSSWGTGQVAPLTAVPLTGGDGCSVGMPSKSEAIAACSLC
T3 sequence (P43117 whole entry): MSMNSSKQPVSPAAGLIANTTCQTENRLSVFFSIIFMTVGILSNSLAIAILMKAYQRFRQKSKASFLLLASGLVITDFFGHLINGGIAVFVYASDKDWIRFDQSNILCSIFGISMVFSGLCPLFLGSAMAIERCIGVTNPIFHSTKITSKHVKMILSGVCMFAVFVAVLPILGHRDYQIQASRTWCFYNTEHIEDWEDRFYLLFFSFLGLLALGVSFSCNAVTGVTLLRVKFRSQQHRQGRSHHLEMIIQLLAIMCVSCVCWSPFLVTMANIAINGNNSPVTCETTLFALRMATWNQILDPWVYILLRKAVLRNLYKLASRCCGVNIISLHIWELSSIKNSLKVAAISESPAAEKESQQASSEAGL

Compound	EC50 (mouse EP1 receptor)	EC50 (mouse IP receptor)	EC50 (mouse FP receptor)	agonist activity on an EP1 receptor (mouse EP1 receptor; in words, summary of Table 1)	agonist activity on an IP receptor (mouse IP receptor; in words, summary of Table 1)	agonist activity on an FP receptor (mouse FP receptor; in words, summary of Table 1)
O=C(O)CCC[C@H]1CC[C@@H]2[C@@H](/C=C/C(F)(F)CCc3ccccc3)[C@H](O)C[C@@H]2OC1 [Example 141 (1), 4-{(3S,5aR,6R,7R,8aS)-6-[(1E)-3,3-difluoro-5-phenyl-1-penten-1-yl]-7-hydroxyoctahydro-2H-cyclopenta[b]oxepin-3-yl}butanoic acid]	> 10000 nmol/L	> 10000 nmol/L	4.6 nmol/L	–	–	–
CC(C)=CCCCC(F)(F)/C=C/[C@@H]1[C@H]2CC[C@H](CCCC(=O)O)CO[C@H]2C[C@H]1O [Example 141 (5), 4-{(3S,5aR,6R,7R,8aS)-6-[(1E)-3,3-difluoro-8-methyl-1,7-nonadien-1-yl]-7-hydroxyoctahydro-2H-cyclopenta[b]oxepin-3-yl}butanoic acid]	> 10000 nmol/L	> 10000 nmol/L	39.1 nmol/L	–	–	–
O=C(O)CCC[C@H]1CC[C@@H]2[C@@H](C(F)/C=C/COc3ccccc3)[C@H](O)C[C@@H]2OC1 (stereo partly drawn) [Example 123, 4-{(3S,5aR,6R,7R,8aS)-6-[(2E)-1-fluoro-4-phenoxy-2-buten-1-yl]-7-hydroxyoctahydro-2H-cyclopenta[b]oxepin-3-yl}butanoic acid]	> 10000 nmol/L	> 10000 nmol/L	99.2 nmol/L	–	–	–
O=C(O)CCC[C@H]1CC[C@H]2[C@H](CC(F)(F)[C@@H]2/C=C/C(O)CCc2ccccc2)OC1 (stereo partly drawn) [Example 139 (2), 4-{(3S,5aR,6R,8aS)-7,7-difluoro-6-[(1E)-3-hydroxy-5-phenyl-1-penten-1-yl]octahydro-2H-cyclopenta[b]oxepin-3-yl}butanoic acid]	> 10000 nmol/L	> 10000 nmol/L	39 nmol/L	–	–	–
O=C(O)CCC[C@H]1CC[C@@H]2[C@@H](/C=C/C(O)CCC3CCCC3)[C@H](O)C[C@@H]2OC1 (stereo partly drawn) [Example 132 (7), 4-{(3S,5aR,6R,7R,8aS)-6-[(1E)-5-cyclopentyl-3-hydroxy-1-penten-1-yl]-7-hydroxyoctahydro-2H-cyclopenta[b]oxepin-3-yl}butanoic acid]	> 10000 nmol/L	> 10000 nmol/L	21.1 nmol/L	–	–	–

Now from value to molecule:

EC50 (mouse EP1 receptor)	EC50 (mouse IP receptor)	EC50 (mouse FP receptor)	agonist activity on an EP1 receptor (mouse EP1 receptor; in words, summary of Table 1)	agonist activity on an IP receptor (mouse IP receptor; in words, summary of Table 1)	agonist activity on an FP receptor (mouse FP receptor; in words, summary of Table 1)	Compound
> 10000 nmol/L	> 10000 nmol/L	114 nmol/L	–	–	–	O=C(O)CCC[C@H]1CC[C@@H]2[C@@H](/C=C/C(O)COCc3ccccc3)[C@H](O)C[C@@H]2OC1 (stereo partly drawn) [Example 132 (3), 4-{(3S,5aR,6R,7R,8aS)-6-[(1E)-4-(benzyloxy)-3-hydroxy-1-buten-1-yl]-7-hydroxyoctahydro-2H-cyclopenta[b]oxepin-3-yl}butanoic acid]
> 10000 nmol/L	> 10000 nmol/L	509 nmol/L	–	–	–	O=C(O)CCC[C@H]1CC[C@@H]2[C@@H](CCOCCc3ccccc3)[C@H](O)C[C@@H]2OC1 [Example 115, 4-{(3S,5aR,6R,7R,8aS)-7-hydroxy-6-[2-(2-phenylethoxy)ethyl]octahydro-2H-cyclopenta[b]oxepin-3-yl}butanoic acid]
> 10000 nmol/L	> 10000 nmol/L	9.7 nmol/L	–	–	–	O=C(O)CCC[C@H]1CC[C@@H]2[C@@H](CC[C@@H](O)COc3cccc(C(F)(F)F)c3)[C@H](O)C[C@@H]2OC1 [Example 108 (13), 4-[(3S,5aR,6R,7R,8aS)-7-hydroxy-6-{(3R)-3-hydroxy-4-[3-(trifluoromethyl)phenoxy]butyl}octahydro-2H-cyclopenta[b]oxepin-3-yl]butanoic acid]
> 10000 nmol/L	> 10000 nmol/L	707 nmol/L	–	–	–	O=C(O)CCC[C@H]1CC[C@@H]2[C@@H](COC/C=C/c3ccccc3)[C@H](O)C[C@@H]2OC1 [Example 110, 4-[(3S,5aR,6S,7R,8aS)-7-hydroxy-6-({[(2E)-3-phenyl-2-propen-1-yl]oxy}methyl)octahydro-2H-cyclopenta[b]oxepin-3-yl]butanoic acid]
> 10000 nmol/L	> 10000 nmol/L	50.8 nmol/L	–	–	–	O=C(O)CCC[C@H]1CC[C@@H]2[C@@H](C#CC(O)CCc3ccccc3)[C@H](O)C[C@@H]2OC1 (stereo partly drawn) [Example 119, 4-[(3S,5aR,6S,7R,8aS)-7-hydroxy-6-(3-hydroxy-5-phenyl-1-pentyn-1-yl)octahydro-2H-cyclopenta[b]oxepin-3-yl]butanoic acid]
3 nmol/L	710 nmol/L	1.1 nmol/L	has agonist activity	has agonist activity	has agonist activity	O=C(O)CCC[C@H]1CC[C@@H]2[C@@H](/C=C/[C@@H](O)COc3ccccc3)[C@H](O)C[C@@H]2O1 [Comparative Compound A, reference compound]
9270 nmol/L	> 10000 nmol/L	9.8 nmol/L	–	–	–	O=C(O)CCC[C@H]1CC[C@@H]2[C@@H](/C=C/C(F)COc3ccccc3)[C@H](O)C[C@@H]2OC1 (stereo partly drawn) [Example 122, 4-{(3S,5aR,6R,7R,8aS)-6-[(1E)-3-fluoro-4-phenoxy-1-buten-1-yl]-7-hydroxyoctahydro-2H-cyclopenta[b]oxepin-3-yl}butanoic acid]
